Several values for one entry are separate records, joined by “and”; a condition that tells them apart may be missing. Equal entries are not always repeated.
Experiments:
Assay type in all cases: functional
UACC-257 [1] = assay: Growth inhibition of human UACC-257 cells assessed as growth percentage at 10 uM incubated for 48 hrs by sulforhodamine B assay relative to control; conditions: read-out: Activity
NCI-H322M = assay: Growth inhibition of human NCI-H322M cells assessed as growth percentage at 10 uM incubated for 48 hrs by sulforhodamine B assay relative to control; conditions: read-out: Activity
NCI-H23 [2] = assay: Growth inhibition of human NCI-H23 cells assessed as growth percentage at 10 uM incubated for 48 hrs by sulforhodamine B assay relative to control; conditions: read-out: Activity
A549 [3] = assay: Growth inhibition of human A549/ATCC cells assessed as growth percentage at 10 uM incubated for 48 hrs by sulforhodamine B assay relative to control; conditions: read-out: Activity
MDA-MB-231 = assay: Growth inhibition of human MDA-MB-231/ATCC cells incubated for 48 hrs by sulforhodamine B assay; conditions: for TGI: MDA-MB-231
TK-10 [4] = assay: Growth inhibition of human TK-10 cells incubated for 48 hrs by sulforhodamine B assay; conditions: for GI50 / TGI: TK-10
IGROV-1 = assay: Growth inhibition of human IGROV-1 cells incubated for 48 hrs by sulforhodamine B assay
UACC-62 = assay: Growth inhibition of human UACC-62 cells incubated for 48 hrs by sulforhodamine B assay
UACC-257 [5] = assay: Growth inhibition of human UACC-257 cells incubated for 48 hrs by sulforhodamine B assay
SF-295 [6] = assay: Growth inhibition of human SF-295 cells incubated for 48 hrs by sulforhodamine B assay
SF-268 = assay: Growth inhibition of human SF-268 cells incubated for 48 hrs by sulforhodamine B assay
KM12 [7] = assay: Growth inhibition of human KM12 cells incubated for 48 hrs by sulforhodamine B assay; conditions: for TGI: KM12
A549 [8] = assay: Growth inhibition of human A549/ATCC cells incubated for 48 hrs by sulforhodamine B assay
T47D = assay: Growth inhibition of human T47D cells assessed as growth percentage at 100 uM incubated for 48 hrs by sulforhodamine B assay relative to control; conditions: read-out: Activity
MDA-MB-468 [9] = assay: Growth inhibition of human MDA-MB-468 cells assessed as growth percentage at 100 uM incubated for 48 hrs by sulforhodamine B assay relative to control; conditions: read-out: Activity
TK-10 [10] = assay: Growth inhibition of human TK-10 cells assessed as growth percentage at 100 uM incubated for 48 hrs by sulforhodamine B assay relative to control; conditions: read-out: Activity
SN12C = assay: Growth inhibition of human SN12C cells assessed as growth percentage at 100 uM incubated for 48 hrs by sulforhodamine B assay relative to control; conditions: read-out: Activity
SNB-75 [11] = assay: Growth inhibition of human SNB-75 cells assessed as growth percentage at 100 uM incubated for 48 hrs by sulforhodamine B assay relative to control; conditions: read-out: Activity
SF-295 [12] = assay: Growth inhibition of human SF-295 cells assessed as growth percentage at 100 uM incubated for 48 hrs by sulforhodamine B assay relative to control; conditions: read-out: Activity
KM12 [13] = assay: Growth inhibition of human KM12 cells assessed as growth percentage at 100 uM incubated for 48 hrs by sulforhodamine B assay relative to control; conditions: read-out: Activity
NCI-H23 [14] = assay: Growth inhibition of human NCI-H23 cells assessed as growth percentage at 100 uM incubated for 48 hrs by sulforhodamine B assay relative to control; conditions: read-out: Activity
NCI-H226 = assay: Growth inhibition of human NCI-H226 cells assessed as growth percentage at 100 uM incubated for 48 hrs by sulforhodamine B assay relative to control; conditions: read-out: Activity
MOLT-4 = assay: Growth inhibition of human MOLT-4 cells assessed as growth percentage at 100 uM incubated for 48 hrs by sulforhodamine B assay relative to control; conditions: read-out: Activity
MDA-MB-468 [15] = assay: Growth inhibition of human MDA-MB-468 cells assessed as growth percentage at 1 uM incubated for 48 hrs by sulforhodamine B assay relative to control; conditions: read-out: Activity
MCF7 = assay: Growth inhibition of human MCF7 cells assessed as growth percentage at 1 uM incubated for 48 hrs by sulforhodamine B assay relative to control; conditions: read-out: Activity
OVCAR-3 = assay: Growth inhibition of human OVCAR-3 cells assessed as growth percentage at 1 uM incubated for 48 hrs by sulforhodamine B assay relative to control; conditions: read-out: Activity
A549 [16] = assay: Growth inhibition of human A549/ATCC cells assessed as growth percentage at 1 uM incubated for 48 hrs by sulforhodamine B assay relative to control; conditions: read-out: Activity
BT-549 = assay: Growth inhibition of human BT-549 cells assessed as growth percentage at 0.1 uM incubated for 48 hrs by sulforhodamine B assay relative to control; conditions: read-out: Activity
PC-3 = assay: Growth inhibition of human PC-3 cells assessed as growth percentage at 0.1 uM incubated for 48 hrs by sulforhodamine B assay relative to control; conditions: read-out: Activity
A498 [17] = assay: Growth inhibition of human A498 cells assessed as growth percentage at 0.1 uM incubated for 48 hrs by sulforhodamine B assay relative to control; conditions: read-out: Activity
MDA-MB-435 [18] = assay: Growth inhibition of human MDA-MB-435 cells assessed as growth percentage at 0.1 uM incubated for 48 hrs by sulforhodamine B assay relative to control; conditions: read-out: Activity
SF-295 [19] = assay: Growth inhibition of human SF-295 cells assessed as growth percentage at 0.1 uM incubated for 48 hrs by sulforhodamine B assay relative to control; conditions: read-out: Activity
KM12 [20] = assay: Growth inhibition of human KM12 cells assessed as growth percentage at 0.1 uM incubated for 48 hrs by sulforhodamine B assay relative to control; conditions: read-out: Activity
HOP-62 = assay: Growth inhibition of human HOP-62 cells assessed as growth percentage at 0.1 uM incubated for 48 hrs by sulforhodamine B assay relative to control; conditions: read-out: Activity
A549 [21] = assay: Growth inhibition of human A549/ATCC cells assessed as growth percentage at 0.1 uM incubated for 48 hrs by sulforhodamine B assay relative to control; conditions: read-out: Activity
A498 [22] = assay: Growth inhibition of human A498 cells assessed as growth percentage at 0.01 uM incubated for 48 hrs by sulforhodamine B assay relative to control; conditions: read-out: Activity
MDA-MB-435 [23] = assay: Growth inhibition of human MDA-MB-435 cells assessed as growth percentage at 0.01 uM incubated for 48 hrs by sulforhodamine B assay relative to control; conditions: read-out: Activity
SNB-75 [24] = assay: Growth inhibition of human SNB-75 cells assessed as growth percentage at 0.01 uM incubated for 48 hrs by sulforhodamine B assay relative to control; conditions: read-out: Activity

Nc1nc2[nH]c(CN3CCN(c4cc(Cl)cc(Cl)c4)CC3)c(CN3CCN(c4cc(Cl)cc(Cl)c4)CC3)c2c(=O)[nH]1
growth at 10 µM (UACC-257 [1]): 97.6%
growth at 10 µM (NCI-H322M): 64.3%
growth at 10 µM (NCI-H23 [2]): 85.7%
growth at 10 µM (A549 [3]): 72.7%
TGI (MDA-MB-231; Homo sapiens): 3980 nM
GI50 (MDA-MB-231; Homo sapiens, MDA-MB-231, 48 h): 2010 nM
GI50 (TK-10 [4]): 1800 nM
TGI (TK-10 [4]): 3260 nM
GI50 (IGROV-1): 1950 nM
TGI (IGROV-1): 3980 nM
GI50 (UACC-62; Homo sapiens, UACC-62, 48 h): 1800 nM
TGI (UACC-62; Homo sapiens, UACC-62, 48 h): 3420 nM
GI50 (UACC-257 [5]; Homo sapiens, UACC-257, 48 h): 2060 nM
TGI (UACC-257 [5]; Homo sapiens, UACC-257, 48 h): 4760 nM
GI50 (SF-295 [6]): 1820 nM
TGI (SF-295 [6]): 3900 nM
GI50 (SF-268): 1770 nM
TGI (SF-268): 3350 nM
TGI (KM12 [7]; Homo sapiens): 3420 nM
GI50 (KM12 [7]; Homo sapiens, KM12, 48 h): 1830 nM
CC50 (KM12 [7]; Homo sapiens, KM12, read-out: LC50 (the source's name)): 6380 nM
TGI (A549 [8]; Homo sapiens, A549): 3730 nM
GI50 (A549 [8]; Homo sapiens, A549, 48 h): 1820 nM
growth at 100 µM (T47D): -44%
growth at 100 µM (MDA-MB-468 [9]): -44%
growth at 100 µM (TK-10 [10]): -69%
growth at 100 µM (SN12C): -35%
growth at 100 µM (SNB-75 [11]): -76%
growth at 100 µM (SF-295 [12]): -33%
growth at 100 µM (KM12 [13]): -84%
growth at 100 µM (NCI-H23 [14]): -47%
growth at 100 µM (NCI-H226): -25%
growth at 100 µM (MOLT-4): -7%
growth at 1 µM (MDA-MB-468 [15]): 85%
growth at 1 µM (MCF7): 79%
growth at 1 µM (OVCAR-3): 98%
growth at 1 µM (A549 [16]): 92%
growth at 0.1 µM (BT-549): 92%
growth at 0.1 µM (PC-3): 96%
growth at 0.1 µM (A498 [17]): 82%
growth at 0.1 µM (MDA-MB-435 [18]): 97%
growth at 0.1 µM (SF-295 [19]): 93%
growth at 0.1 µM (KM12 [20]): 105%
growth at 0.1 µM (HOP-62): 99%
growth at 0.1 µM (A549 [21]): 94%
growth at 0.01 µM (A498 [22]): 90%
growth at 0.01 µM (MDA-MB-435 [23]): 89%
growth at 0.01 µM (SNB-75 [24]): 81%

CCCCCCCC(=O)Nc1nc2[nH]c(CN3CCN(Cc4cccc(F)c4)CC3)c(CN3CCN(Cc4cccc(F)c4)CC3)c2c(=O)[nH]1
growth at 10 µM (UACC-257 [1]): -18.5%
growth at 10 µM (NCI-H322M): -41.2%
growth at 10 µM (NCI-H23 [2]): -53.8%
growth at 10 µM (A549 [3]): -74.7%
GI50 (MDA-MB-231; 48 h): 590 nM
TGI (MDA-MB-231; Homo sapiens): 1960 nM
GI50 (MDA-MB-231; Homo sapiens, MDA-MB-231, 48 h): 587 nM
CC50 (MDA-MB-231; Homo sapiens, MDA-MB-231, read-out: LC50 (the source's name)): 5380 nM
GI50 (TK-10 [4]): 1740 nM
TGI (TK-10 [4]): 3260 nM
CC50 (TK-10 [4]; TK-10, 48 h, read-out: LC50 (the source's name)): 6110 nM
GI50 (IGROV-1): 1430 nM
TGI (IGROV-1): 3200 nM
CC50 (IGROV-1; read-out: LC50 (the source's name)): 7140 nM
GI50 (UACC-62; 48 h): 1680 nM
TGI (UACC-62; 48 h): 3150 nM
CC50 (UACC-62; 48 h, read-out: LC50 (the source's name)): 590 nM and 5900 nM
GI50 (UACC-62; Homo sapiens, UACC-62, 48 h): 1800 nM
TGI (UACC-62; Homo sapiens, UACC-62, 48 h): 3420 nM
GI50 (UACC-257 [5]; 48 h): 200 nM
TGI (UACC-257 [5]; 48 h): 460 nM
GI50 (UACC-257 [5]; Homo sapiens, UACC-257, 48 h): 203 nM
LC50 (concentration killing 50% of cells) (UACC-257 [5]; Homo sapiens, UACC-257, 48 h): 1090 nM
TGI (UACC-257 [5]; Homo sapiens, UACC-257, 48 h): 456 nM
GI50 (SF-295 [6]): 1410 nM
LC50 (SF-295 [6]): 5790 nM
TGI (SF-295 [6]): 2850 nM
GI50 (SF-268): 1260 nM
LC50 (SF-268): 5730 nM
TGI (SF-268): 2680 nM
GI50 (KM12 [7]; 48 h): 720 nM
TGI (KM12 [7]; Homo sapiens): 2380 nM
GI50 (KM12 [7]; Homo sapiens, KM12, 48 h): 719 nM
GI50 (A549 [8]; 48 h): 340 nM
LC50 (A549 [8]; Homo sapiens, A549): 4360 nM
TGI (A549 [8]; Homo sapiens, A549): 1240 nM
GI50 (A549 [8]; Homo sapiens, A549, 48 h): 343 nM
growth at 100 µM (T47D): -68%
growth at 100 µM (MDA-MB-468 [9]): -75%
growth at 100 µM (TK-10 [10]): -91%
growth at 100 µM (SN12C): -69%
growth at 100 µM (SNB-75 [11]): -99%
growth at 100 µM (SF-295 [12]): -81%
growth at 100 µM (KM12 [13]): -47%
growth at 100 µM (NCI-H23 [14]): -53%
growth at 100 µM (NCI-H226): -94%
growth at 100 µM (MOLT-4): -7%
growth at 1 µM (MDA-MB-468 [15]): 29%
growth at 1 µM (MCF7): -51%
growth at 1 µM (OVCAR-3): 44%
growth at 1 µM (A549 [16]): 8%
growth at 0.1 µM (BT-549): 85%
growth at 0.1 µM (PC-3): 96%
growth at 0.1 µM (A498 [17]): 76%
growth at 0.1 µM (MDA-MB-435 [18]): 90%
growth at 0.1 µM (SF-295 [19]): 94%
growth at 0.1 µM (KM12 [20]): 93%
growth at 0.1 µM (HOP-62): 95%
growth at 0.1 µM (A549 [21]): 98%
growth at 0.01 µM (A498 [22]): 66%
growth at 0.01 µM (MDA-MB-435 [23]): 99%
growth at 0.01 µM (SNB-75 [24]): 93%

Reference: ChEMBL document CHEMBL4673219, “Novel 5,6-disubstituted pyrrolo[2,3-d]pyrimidine derivatives as broad spectrum antiproliferative agents: Synthesis, cell based assays, kinase profile and molecular docking study” (Bioorg Med Chem, 2018)
